Experimental findings from article PMC10938783, “A novel pan-PI3K inhibitor KTC1101 synergizes with anti-PD-1 therapy by targeting tumor suppression and immune activation” (Molecular Cancer, 2024) are described below.

Molecules are shown by their SMILES.

Data set [1] is described as follows: Plasma metabolic stability assay. It counts as in vitro ADME. The following applies: mouse plasma, 37°C, 120 min incubation. How it is done: 495 µL of plasma was placed in a 96-well plate and pre-incubated at 37°C for 5 min.
For data set [2], the system named is JFCR39 panel of 39 human tumor cell lines. In words: JFCR39 panel growth inhibition, panel statistics. It counts as cell-based. The conditions noted are these: Homo sapiens; JFCR39 panel; read-out: mean GI50 across all 39 cell lines. As for the experimental part: JFCR39 drug discovery system was used to measure the growth inhibitory activities and identify the target of KTC1101. The JFCR39 panel consists of 39 cell lines seeded in 96-well plates. After 48-h treatment with KTC1101, cell growth was measured using the sulforhodamine B assay. […] The deviation of log GI50 for each cell line from the average log GI50 across the JFCR39 panel was plotted as a fingerprint. MG-MID (mean of Log GI50 values) represents the average log GI50 for all 39 cell lines. The most sensitive and least sensitive cell lines were identified by calculating the difference in their log GI50 values (Range) and the difference between the most sensitive cell line and the average GI50 on the JFCR39 panel (Delta). The fingerprint of KTC1101 was compared with the fingerprints of reference compounds in the database. The Pearson correlation coefficient (r) was calculated (n = 39).

A short description of data set [3]: Liver microsome metabolic stability assay. The following applies: mouse, microsomes. On the technique in general: Liver microsomes are vesicles of endoplasmic reticulum, rich in cytochrome P450 enzymes.

In the case of `CCN(CC)CCOC(=O)c1ccc(N)cc1` [Procaine, reference compound], the half-life at 1 µM in data set [1] turned out to be 37.8 min.
`FC(F)c1nc2ccccc2n1-c1nc(N2CCOCC2)nc(N2CCOCC2)n1` [ZSTK474, reference compound]: the concentration for 50% growth inhibition (GI50) in data set [2] was 0.32 µM.
Still for that read-out and setting: in the case of `COc1c(OCCCN2CCOCC2)ccc2c1N=C(NC(=O)c1cnc(N)nc1)N1CCN=C21` [Copanlisib, reference compound] it was 0.134 µM.
In data set [3], `Cc1ncc2n1-c1ccc(Cl)cc1C(c1ccccc1F)=NC2` [Midazolam, reference compound] yielded a half-life at 1 µM of 1.24 min and a microsomal CLint at 1 µM of 1120 µL/min/mg.

As a reminder, the half-life is how long it takes for the measured level to halve. A high value points to slow decline. The GI50 is the concentration at which growth is held to half of that of the control. The term microsomal CLint denotes the capacity of the preparation to metabolise the compound, expressed as a volume cleared per time. Higher therefore signals rapid turnover.
